Measurements as given in ChEMBL document CHEMBL5512640, “Discovery of novel itaconimide-based derivatives as potent HDAC inhibitors for the efficient treatment of prostate cancer” (Eur J Med Chem, 2024).
The source made the active and inactive calls. The rule behind the calls is not given here.

Tests used:
[1] = Clearance in Sprague-Dawley rat at 2 mg/kg, iv measured upto 24 hrs by LC-MS/MS analysis; assay type: ADME, organism-based; conditions: in vivo
[2] = Acute toxicity in Sprague-Dawley rat assessed as effect on spleen at 500 to 4500 mg/kg, po measured after 15 days; assay type: organism-based; conditions: in vivo, 360 h, dose 500-4500 mg/kg, time 15 day
DU-145 [3] = experiment: Antitumor activity against human DU-145 cells xenografted in Balb/c nude mouse model assessed as tumor growth inhibition at 200 mg/kg, po administered once daily for 40 days in presence of docetaxel relative to control; assay type: functional; conditions: DU-145, 960 h, time 40 day, read-out: TGI
LNCaP = experiment: Antiproliferative activity against human LNCaP cells incubated for 96 hrs by MTT assay; assay type: functional, cell-based
[4] = AUC (0 to infinity) in Sprague-Dawley rat at 2 mg/kg, iv measured upto 24 hrs by LC-MS/MS analysis; assay type: ADME, organism-based; conditions: in vivo
PC-3 = experiment: Antiproliferative activity against human PC-3 cells incubated for 96 hrs by MTT assay; assay type: functional, cell-based; conditions: PC-3, 96 h
DU-145 [5] = experiment: Induction of apoptosis in human DU-145 cells assessed as apoptotic rate at 0.8 uM measured after 72 hrs by annexin V-FITC and PI staining based flow cytometry analysis (reference value: 3.41%); assay type: functional
DU-145 [6] = experiment: Upregulation of histone H3 level in human DU-145 cells incubated for 24 hrs by Western blot analysis; assay type: functional, cell-based; conditions: dose 0.8-3.2 µM
[7] = Acute toxicity in male Sprague-Dawley rat assessed as effect on body weight at 500 to 4500 mg/kg, po measured every 3 days for 15 days; assay type: organism-based; conditions: in vivo, 360 h, dose 500-4500 mg/kg, time 15 day
MCF7 = experiment: Antiproliferative activity against human MCF7 cells incubated for 96 hrs by MTT assay; assay type: functional, cell-based; conditions: MCF7, 96 h
DU-145 [8] = experiment: Upregulation of Ac-H3 level in human DU-145 cells incubated for 24 hrs by Western blot analysis; assay type: functional, cell-based; conditions: dose 0.8-3.2 µM
[9] = Cmax in Sprague-Dawley rat at 2 mg/kg, iv measured upto 24 hrs by LC-MS/MS analysis; assay type: ADME, organism-based; conditions: in vivo
[10] = Toxicity in Balb/c mouse assessed as effect on body weight at 100 mg/kg, po measured upto 40 days in presence of docetaxel; assay type: organism-based; conditions: in vivo, 960 h, time < 40 day
DU-145 [11] = experiment: Inhibition of cell migration in human DU-145 cells assessed as suppression of wound closure incubated for 12 hrs by wound healing assay; assay type: functional, cell-based; conditions: dose 0.2-1.6 µM
DU-145 [12] = experiment: Downregulation of HDAC6 expression in human DU-145 cells at 0.8 uM incubated for 24 hrs by Western blot analysis; assay type: functional, cell-based
[13] = Cmax in Sprague-Dawley rat at 10 mg/kg, po measured upto 24 hrs by LC-MS/MS analysis; assay type: ADME, organism-based; conditions: in vivo
DU-145 [14] = experiment: Induction of apoptosis in human DU-145 cells assessed as apoptotic rate at 1.6 uM measured after 72 hrs by annexin V-FITC and PI staining based flow cytometry analysis relative to control; assay type: functional
DU-145 [15] = experiment: animal or person; assay type: functional, Homo sapiens; conditions: Mus musculus, DU-145, 960 h, route po, time 40 day, read-out: TGI
Description: Antitumor activity against human DU-145 cells xenografted in Balb/c nude mouse model assessed as tumor growth inhibition at 100 mg/kg, po administered once daily for 40 days relative to control

[16] = biological target: Protein deacetylase HDAC6 (Homo sapiens, UniProt Q9UBN7); experiment: Inhibition of human HDAC6 incubated for 10 mins followed by fluorogenic substrate addition by fluorescence based analysis
DU-145 [17] = experiment: Antiproliferative activity against human DU-145 cells incubated for 96 hrs by MTT assay; assay type: functional, cell-based; conditions: DU-145, 96 h
Histone deacetylase 11 = Histone deacetylase 11 (Homo sapiens, UniProt Q96DB2); experiment: Inhibition of human HDAC11 incubated for 10 mins followed by fluorogenic substrate addition by fluorescence based analysis
[18] = Acute toxicity in Sprague-Dawley rat assessed as effect on liver at 500 to 4500 mg/kg, po measured after 15 days; assay type: organism-based; conditions: in vivo, 360 h, dose 500-4500 mg/kg, time 15 day
Histone deacetylase 1 = Histone deacetylase 1 (Homo sapiens, UniProt Q13547); experiment: Inhibition of human HDAC1 incubated for 10 mins followed by fluorogenic substrate addition by fluorescence based analysis
[19] = Half life in Sprague-Dawley rat at 2 mg/kg, iv measured upto 24 hrs by LC-MS/MS analysis; assay type: ADME, organism-based; conditions: in vivo
[20] = Toxicity in Balb/c mouse assessed as effect on body weight at 100 to 200 mg/kg, po measured upto 40 days; assay type: organism-based; conditions: in vivo, 960 h, dose 100-200 mg/kg, time < 40 day
NCI-H1650 = experiment: Antiproliferative activity against human NCI-H1650 cells incubated for 96 hrs by MTT assay; assay type: functional, cell-based; conditions: NCI-H1650, 96 h
DU-145 [21] = experiment: Induction of cell cycle arrest in human DU-145 cells assessed as increase in accumulation of cells at G2/M phase incubated for 24 hrs by PI staining based flow cytometry analysis; assay type: functional; conditions: dose 0.4-3.2 µM
Histone deacetylase 3 = Histone deacetylase 3 (Homo sapiens, UniProt O15379); experiment: Inhibition of human HDAC3 incubated for 10 mins followed by fluorogenic substrate addition by fluorescence based analysis
[22] = Acute toxicity in Sprague-Dawley rat assessed as effect on lung at 500 to 4500 mg/kg, po measured after 15 days; assay type: organism-based; conditions: in vivo, 360 h, dose 500-4500 mg/kg, time 15 day
NCI-H446 = experiment: Antiproliferative activity against human NCI-H446 cells incubated for 96 hrs by MTT assay; assay type: functional, cell-based; conditions: NCI-H446, 96 h
A549 = experiment: Antiproliferative activity against human A549 cells incubated for 96 hrs by MTT assay; assay type: functional, cell-based; conditions: A549, 96 h
DU-145 [23] = experiment: Inhibition of colony formation in human DU-145 cells assessed as suppression of colony formation at 3.2 uM measured after […] by crystal violet staining based analysis relative to control; assay type: functional
[24] = Half life in Sprague-Dawley rat at 10 mg/kg, po measured upto 24 hrs by LC-MS/MS analysis; assay type: ADME, organism-based; conditions: in vivo
Histone deacetylase 4 = Histone deacetylase 4 (Homo sapiens, UniProt P56524); experiment: Inhibition of human HDAC4 incubated for 10 mins followed by fluorogenic substrate addition by fluorescence based analysis
[25] = Acute toxicity in Sprague-Dawley rat assessed as pathological lesions at 500 to 4500 mg/kg, po measured after 15 days by H and E staining based analysis; assay type: organism-based; conditions: in vivo, 360 h, dose 500-4500 mg/kg, time 15 day
Histone deacetylase 7 = Histone deacetylase 7 (Homo sapiens, UniProt Q8WUI4); experiment: Inhibition of human HDAC7 incubated for 10 mins followed by fluorogenic substrate addition by fluorescence based analysis
Histone deacetylase 5 = Histone deacetylase 5 (Homo sapiens, UniProt Q9UQL6); experiment: Inhibition of human HDAC5 incubated for 10 mins followed by fluorogenic substrate addition by fluorescence based analysis
DU-145 [26] = experiment: Antitumor activity against human DU-145 cells xenografted in Balb/c nude mouse model assessed as tumor growth inhibition at 100 mg/kg, po administered once daily for 40 days in presence of docetaxel relative to control; assay type: functional; conditions: DU-145, 960 h, time 40 day, read-out: TGI
[27] = AUC (0 to infinity) in Sprague-Dawley rat at 10 mg/kg, po measured upto 24 hrs by LC-MS/MS analysis; assay type: ADME, organism-based; conditions: in vivo
[28] = Volume of distribution in Sprague-Dawley rat at 2 mg/kg, iv measured upto 24 hrs by LC-MS/MS analysis; assay type: ADME, organism-based; conditions: in vivo

Histone deacetylase 4, sequence (P56524 whole entry): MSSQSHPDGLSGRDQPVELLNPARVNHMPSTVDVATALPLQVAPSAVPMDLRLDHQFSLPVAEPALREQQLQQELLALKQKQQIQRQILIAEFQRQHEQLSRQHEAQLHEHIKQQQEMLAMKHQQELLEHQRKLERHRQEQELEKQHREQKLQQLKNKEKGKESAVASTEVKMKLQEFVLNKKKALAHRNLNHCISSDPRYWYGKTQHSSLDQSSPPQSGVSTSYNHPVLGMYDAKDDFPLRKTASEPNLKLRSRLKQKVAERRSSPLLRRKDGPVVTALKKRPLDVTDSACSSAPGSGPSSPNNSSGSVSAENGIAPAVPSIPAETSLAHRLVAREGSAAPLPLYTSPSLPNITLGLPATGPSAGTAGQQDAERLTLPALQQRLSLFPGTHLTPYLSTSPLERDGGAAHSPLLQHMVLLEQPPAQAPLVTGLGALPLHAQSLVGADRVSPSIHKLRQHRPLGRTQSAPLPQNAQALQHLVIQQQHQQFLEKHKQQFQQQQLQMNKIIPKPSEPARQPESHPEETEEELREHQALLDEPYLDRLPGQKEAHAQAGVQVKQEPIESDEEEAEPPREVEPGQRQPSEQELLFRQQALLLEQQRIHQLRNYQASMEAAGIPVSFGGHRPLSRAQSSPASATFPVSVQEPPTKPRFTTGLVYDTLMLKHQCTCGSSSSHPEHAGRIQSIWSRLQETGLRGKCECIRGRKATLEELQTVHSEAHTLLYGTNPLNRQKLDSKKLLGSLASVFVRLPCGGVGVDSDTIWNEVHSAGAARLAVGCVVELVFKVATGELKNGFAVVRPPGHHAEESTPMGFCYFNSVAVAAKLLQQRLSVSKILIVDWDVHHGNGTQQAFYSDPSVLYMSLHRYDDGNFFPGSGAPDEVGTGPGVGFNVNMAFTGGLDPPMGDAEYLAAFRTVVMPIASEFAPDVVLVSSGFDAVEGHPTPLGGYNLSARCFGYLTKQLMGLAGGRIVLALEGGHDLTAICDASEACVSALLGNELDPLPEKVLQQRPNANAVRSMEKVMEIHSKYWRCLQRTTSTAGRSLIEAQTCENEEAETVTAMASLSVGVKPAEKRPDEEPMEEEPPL
Histone deacetylase 3, sequence (O15379 whole entry): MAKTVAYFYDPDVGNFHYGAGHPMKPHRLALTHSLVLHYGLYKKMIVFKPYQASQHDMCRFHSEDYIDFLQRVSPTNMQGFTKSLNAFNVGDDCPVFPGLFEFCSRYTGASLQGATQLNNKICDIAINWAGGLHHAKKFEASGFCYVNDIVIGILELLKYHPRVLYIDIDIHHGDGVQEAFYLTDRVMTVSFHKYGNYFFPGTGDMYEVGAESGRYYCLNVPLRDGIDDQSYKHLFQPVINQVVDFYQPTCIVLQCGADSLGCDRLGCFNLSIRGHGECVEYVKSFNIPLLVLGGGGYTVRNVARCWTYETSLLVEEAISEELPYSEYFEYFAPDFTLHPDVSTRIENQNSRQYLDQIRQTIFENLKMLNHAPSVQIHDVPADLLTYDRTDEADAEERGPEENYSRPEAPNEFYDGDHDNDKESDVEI
Histone deacetylase 5, sequence (Q9UQL6 whole entry): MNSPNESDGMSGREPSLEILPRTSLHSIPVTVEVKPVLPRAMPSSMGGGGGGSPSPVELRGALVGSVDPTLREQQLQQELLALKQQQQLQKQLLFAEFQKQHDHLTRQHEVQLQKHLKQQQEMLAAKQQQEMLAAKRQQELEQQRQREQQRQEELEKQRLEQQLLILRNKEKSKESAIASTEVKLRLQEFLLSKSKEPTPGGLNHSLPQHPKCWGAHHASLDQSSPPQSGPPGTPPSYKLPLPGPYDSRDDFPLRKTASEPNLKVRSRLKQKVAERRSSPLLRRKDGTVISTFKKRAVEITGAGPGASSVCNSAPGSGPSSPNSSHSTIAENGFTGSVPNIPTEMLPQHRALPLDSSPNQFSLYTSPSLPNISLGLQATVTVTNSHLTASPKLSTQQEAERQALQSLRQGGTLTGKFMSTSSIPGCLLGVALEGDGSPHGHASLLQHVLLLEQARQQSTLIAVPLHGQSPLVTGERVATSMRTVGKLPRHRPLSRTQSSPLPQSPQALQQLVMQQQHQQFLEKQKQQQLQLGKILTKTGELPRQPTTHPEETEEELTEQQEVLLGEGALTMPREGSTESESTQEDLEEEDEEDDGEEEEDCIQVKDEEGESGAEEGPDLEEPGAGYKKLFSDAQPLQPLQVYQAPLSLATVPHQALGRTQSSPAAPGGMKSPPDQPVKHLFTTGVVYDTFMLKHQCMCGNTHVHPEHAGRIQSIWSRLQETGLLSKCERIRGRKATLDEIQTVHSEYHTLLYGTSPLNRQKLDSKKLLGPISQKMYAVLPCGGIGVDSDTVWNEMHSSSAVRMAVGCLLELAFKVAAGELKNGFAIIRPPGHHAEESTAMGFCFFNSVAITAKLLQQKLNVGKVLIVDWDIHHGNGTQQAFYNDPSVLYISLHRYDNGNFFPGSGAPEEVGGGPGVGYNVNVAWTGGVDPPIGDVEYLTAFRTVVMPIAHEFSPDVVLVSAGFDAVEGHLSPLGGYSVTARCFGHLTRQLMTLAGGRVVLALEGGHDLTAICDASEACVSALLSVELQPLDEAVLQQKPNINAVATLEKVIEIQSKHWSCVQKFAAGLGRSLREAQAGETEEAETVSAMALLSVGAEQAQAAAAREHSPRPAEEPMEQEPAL
Histone deacetylase 7, sequence (Q8WUI4 whole entry): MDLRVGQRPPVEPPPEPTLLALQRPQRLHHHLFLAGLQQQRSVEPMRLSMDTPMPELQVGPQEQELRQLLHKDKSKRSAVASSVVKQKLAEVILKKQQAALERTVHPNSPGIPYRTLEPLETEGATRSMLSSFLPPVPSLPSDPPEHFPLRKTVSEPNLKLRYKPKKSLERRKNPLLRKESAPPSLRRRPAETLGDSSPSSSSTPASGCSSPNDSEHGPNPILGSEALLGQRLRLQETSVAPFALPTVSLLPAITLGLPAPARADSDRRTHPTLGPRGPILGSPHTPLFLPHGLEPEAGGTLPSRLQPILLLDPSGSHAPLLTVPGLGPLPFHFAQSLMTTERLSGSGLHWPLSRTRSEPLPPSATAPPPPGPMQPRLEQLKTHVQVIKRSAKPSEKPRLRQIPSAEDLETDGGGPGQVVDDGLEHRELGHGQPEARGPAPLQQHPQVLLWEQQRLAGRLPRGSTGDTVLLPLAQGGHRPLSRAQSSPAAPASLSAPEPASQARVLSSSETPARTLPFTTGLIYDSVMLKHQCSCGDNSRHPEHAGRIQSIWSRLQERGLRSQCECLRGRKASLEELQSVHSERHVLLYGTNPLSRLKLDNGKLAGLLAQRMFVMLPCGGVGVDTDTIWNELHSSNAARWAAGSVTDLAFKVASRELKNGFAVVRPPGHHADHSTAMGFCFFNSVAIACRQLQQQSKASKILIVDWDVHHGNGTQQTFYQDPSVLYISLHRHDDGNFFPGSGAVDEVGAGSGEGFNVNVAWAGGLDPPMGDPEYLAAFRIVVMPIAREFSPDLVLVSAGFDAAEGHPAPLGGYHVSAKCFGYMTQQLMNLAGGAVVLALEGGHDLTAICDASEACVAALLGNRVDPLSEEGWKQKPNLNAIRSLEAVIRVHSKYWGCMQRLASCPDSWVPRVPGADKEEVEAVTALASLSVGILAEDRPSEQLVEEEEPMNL
Histone deacetylase 1, sequence (Q13547 whole entry): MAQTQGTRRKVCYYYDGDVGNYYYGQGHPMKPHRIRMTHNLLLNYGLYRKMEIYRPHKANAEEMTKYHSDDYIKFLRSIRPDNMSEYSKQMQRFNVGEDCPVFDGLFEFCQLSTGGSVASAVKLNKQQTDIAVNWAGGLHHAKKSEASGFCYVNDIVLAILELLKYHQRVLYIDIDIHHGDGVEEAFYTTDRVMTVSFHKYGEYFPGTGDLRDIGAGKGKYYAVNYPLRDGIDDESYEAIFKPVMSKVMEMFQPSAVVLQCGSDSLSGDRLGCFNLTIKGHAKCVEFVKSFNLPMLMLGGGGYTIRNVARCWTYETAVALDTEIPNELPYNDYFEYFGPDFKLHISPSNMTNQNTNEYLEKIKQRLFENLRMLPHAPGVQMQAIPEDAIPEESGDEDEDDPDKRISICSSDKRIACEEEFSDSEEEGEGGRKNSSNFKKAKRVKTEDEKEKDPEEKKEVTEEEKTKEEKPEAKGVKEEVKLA
Histone deacetylase 11, sequence (Q96DB2 whole entry): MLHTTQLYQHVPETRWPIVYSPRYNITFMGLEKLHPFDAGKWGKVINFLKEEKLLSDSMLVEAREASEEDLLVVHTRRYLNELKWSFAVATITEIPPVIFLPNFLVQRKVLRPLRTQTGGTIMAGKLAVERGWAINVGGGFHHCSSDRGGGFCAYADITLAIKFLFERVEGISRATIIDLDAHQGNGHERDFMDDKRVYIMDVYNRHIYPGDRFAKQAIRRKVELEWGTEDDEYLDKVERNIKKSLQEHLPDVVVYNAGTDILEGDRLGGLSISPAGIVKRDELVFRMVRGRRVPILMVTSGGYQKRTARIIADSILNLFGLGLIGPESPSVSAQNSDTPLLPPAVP

SMILES: COc1ccccc1/C=C1\CC(=O)N(CCCCCCC(=O)NO)C1=O
- clearance [1]: 26.2 mL/min/kg
- Activity [2]: Non-Toxic
- inhibition in vivo at 200 mg/kg (DU-145 [3]): 81.3%
- IC50 (LNCaP): 630 nM
- AUC(0-inf) [4]: 1630 ng·h/mL
- IC50 (PC-3): 720 nM
- Activity (DU-145 [5]): 27.45%
- Activity (DU-145 [6]): Dose-Dependent Effect
- Activity [7]: Non-Toxic
- IC50 (MCF7): 350 nM
- Activity (DU-145 [8]): Dose-Dependent Effect
- Cmax [9]: 852 ng/mL
- Activity [10]: Non-Toxic
- inhibition (DU-145 [11]): Dose-Dependent Effect
- Activity (DU-145 [12]): Active
- Cmax [13]: 774 ng/mL
- Activity (DU-145 [14]): 59.87%
- inhibition in vivo at 100 mg/kg (DU-145 [15]): 50.9%
- IC50 [16]: 3 nM
- IC50 (DU-145 [17]): 160 nM
- IC50 (Histone deacetylase 11): > 5000 nM
- Activity [18]: Non-Toxic
- IC50 (Histone deacetylase 1): 12.6 nM
- half-life [19]: 3.12 h
- Activity [20]: Non-Toxic
- IC50 (NCI-H1650): 3560 nM
- Activity (DU-145 [21]): Dose-Dependent Effect
- IC50 (Histone deacetylase 3): 20 nM
- Activity [22]: Non-Toxic
- IC50 (NCI-H446): 650 nM
- IC50 (A549): 1390 nM
- inhibition at 3.2 µM (DU-145 [23]): 100%
- half-life [24]: 2.87 h
- IC50 (Histone deacetylase 4): > 5000 nM
- Activity [25]: Non-Toxic
- IC50 (Histone deacetylase 7): > 5000 nM
- IC50 (Histone deacetylase 5): > 5000 nM
- inhibition in vivo at 100 mg/kg (DU-145 [26]): 71.4%
- AUC(0-inf) [27]: 3800 ng·h/mL
- Vd [28]: 4.63 L/kg
